The source of these data is patent US7531576B2, “Biphenyl derivatives” (Pola Chemical Industries, Inc., priority 2000, dated 2009).

In the assay the target is ACAT. Nature of the assay: Evaluation of ACAT inhibitory activity (rat liver enzyme preparation, [14C]-oleoyl CoA substrate). Format: biochemical. The following applies: ACAT from liver of rats on high-cholesterol feed; 30° C.; pIC50 from concentration-response curve by the nonlinear least square method. The procedure:
IR (cm^−1) (KBr): • 1517, 1521, 2962. Test (Evaluation of ACAT Inhibitory Activity) (1) Preparation of the Enzyme (ACAT)
(1-1) Each rat was reared for about 3 weeks on high-cholesterol feed (solid feed prepared by adding 1% of cholesterol, 0.3% of sodium cholate, 0.1% of propylthiouracil and 3% of lard to a conventional feed MF).
(1-2) The liver of the rat reared in (1-1) was collected and shredded. 10 mM HEPES buffer (pH 7.4) which contained 0.25 M of sucrose and 1 mM of EDTA was added in an amount about three times as much as the weight of the liver to suspend the latter. The liver was then homogenized by a glass-Teflon homogenizer.
(1-3) The homogenized liver was centrifuged for 15 minutes under 22000×g, and the supernatant was collected.
(1-4) The supernatant was centrifuged further for 60 minutes under 100000×g. To the precipitates, 10 mM HEPES buffer (pH 7.4) containing 0.25 M of sucrose and 1 mM of EDTA therein was added in about a half of the volume used in (1-2), and the precipitates were suspended again.
(1-5) The suspension was again centrifuged for 60 minutes under 100000×g, and the resulting precipitates were collected. 10 mM HEPES buffer (pH 7.4) containing 0.25 M of sucrose and 2 mM of DTT therein was added to suspend the precipitates. The suspension was stored at −80° C.
(2) Preparation of Reagents
0.75 M Phosphate buffer (pH 7.4), 800 μM BSA and 100 mM DTT were mixed together in amounts of 1.0 mL, 0.5 mL and 0.1 mL, respectively, and ultrapure water (3.4 mL) was added.
A refrigerated sample of the enzyme was diluted with the “reaction buffer” described above to 2.5 mg protein/mL.
10^−3 M Solutions of the compounds to be evaluated were prepared with methanol. 3×10^−4 M Solutions were each prepared by adding 50% methanol (700 μL) to the corresponding 10^−3 M solution (300 μL). 10^−4 M Solutions were each prepared by adding 50% methanol (600 μL) to the corresponding […] solution (300 μL). Up to 10^−7 M solutions (serial 3-fold dilutions), the solutions were prepared by a similar procedure.
(3) Assay Method of ACAT Activity
(3-1) ACAT (20 μL), the reaction buffer (20 μL) and desired one (5 μL) of test samples were placed in a 1.5 mL test tube and incubated at 30° C. for 10 minutes (the resulting solution will hereinafter be called “I”).
(3-2) Reaction substrate [^14C]-oleoyl CoA (5 μL) was added into “I”, and was allowed to react at 30° C. for 4 minutes.
(3-3) Four minutes later, methanol (250 μL) was added to terminate the reaction, and then, a lipid mixture (40 μL), recovery-percentage-correcting [^3H]-cholesteryl oleate (10 μL) and hexane (700 μL) were added into the test tube (this solution will hereinafter be called “II”).
(3-4) “II” was stirred in a mixer, and the hexane layer (500 μL) was collected and transferred into another test tube (this solution will hereinafter be called “III”).
(3-5) “III” was evaporated to dryness, dissolved in chloroform (10 μL), and then spotted on a TLC plate. At that time, cholesteryl oleate was also spotted.
(3-6) After the spots were dried, they were developed with a 85:15:0.5 mixture of hexane, diethyl ether and acetic acid as a developer solvent, and then stained with iodine. A plate section corresponding to the spot of cholesteryl oleate was cut out and placed in a vial. At the same time, the reaction substrate [^14C]-oleoyl CoA (5 μL) and the recovery-percentage-correcting [^3H]-cholesteryl oleate (10 μL) were spotted on the TLC plate, and similarly, plate sections were cut out and placed in vials, respectively.
(3-7) Subsequently, “Aquazole II” (about 10 mL) was added to the vials. After the vials were allowed to stand for a while, they were measured for [^14C] and [^3H] radioactivities.
Using the radioactivities, the % recovery of [^14C]-cholesteryl oleate formed by the enzymatic reaction was calculated from the radioactivity of [^3H], and from the radioactivity of [^14C], the yield of cholesteryl oleate was calculated. […]
The compound `CCCCCN(Cc1ccc(-c2ccccc2-c2nnn[nH]2)cc1)C(=O)Nc1c(C(C)C)cccc1C(C)C` [Compound of the formula (4), N-(2,6-Diisopropylphenyl)-N′-pentyl-N′-[[2′-(1H-tetrazol-5-yl)-1,1′-biphenyl-4-yl]methyl]urea] had a PIC50 of 5.72.
`CCCCCN(Cc1ccc(-c2ccccc2-c2nnn[nH]2)cc1)C(=O)Nc1c(C)cc(C)cc1C` [Compound of the formula (5), N′-Pentyl-N′-[[2′-(1H-tetrazol-5-yl)-1,1′-biphenyl-4-yl]methyl]-N-(2,4,6-trimethylphenyl)urea] had a PIC50 of 5.65.
With `CCCCCN(Cc1ccc(-c2ccccc2-c2nnn[nH]2)cc1)C(=O)Nc1c(F)cc(F)cc1F` [Compound of the formula (6), N′-Pentyl-N′-[[2′-(1H-tetrazol-5-yl)-1,1′-biphenyl-4-yl]methyl]-N-(2,4,6-trifluorophenyl)urea], the PIC50 stood at 5.52.
`CCCCCCCN(Cc1ccc(-c2ccccc2-c2nnn[nH]2)cc1)C(=O)Nc1c(F)cc(F)cc1F` [Compound of the formula (7), N′-Heptyl-N′-[[2′-(1H-tetrazol-5-yl)-1,1′-biphenyl-4-yl]methyl]-N-(2,4,6-trifluorophenyl)urea] had a PIC50 of 6.23.
Turning to `CCCCCCCN(Cc1ccc(-c2ccccc2-c2nnn[nH]2)cc1)C(=O)Nc1ccc(F)cc1F` [Compound of the formula (8), N-(2,4-Difluorophenyl)-N′-heptyl-N′-[[2′-(1H-tetrazol-5-yl)-1,1′-biphenyl-4-yl]methyl]urea], the PIC50 is listed as 5.49.
As for `CCCCCCCN(Cc1ccc(-c2ccccc2-c2nnn[nH]2)cc1)C(=O)NC1CCCCC1` [Compound of the formula (9), N-Cyclohexyl-N′-heptyl-N′-[[2′-(1H-tetrazol-5-yl)-1,1′-biphenyl-4-yl]methyl]urea], the PIC50 amounted to 5.18.
As to `CCCCCN(Cc1ccc(-c2ccccc2NC(=O)C(F)(F)F)cc1)C(=O)Nc1c(F)cc(F)cc1F` [Compound of the formula (10), N′-Pentyl-N′-[[2′-[[(trifluoromethyl)carbonyl]-amino]-1,1′-biphenyl-4-yl]methyl]-N-(2,4,6-trifluorophenyl)urea], the PIC50 is given as 6.57.
Consider `CCCCCN(Cc1ccc(-c2ccccc2NS(=O)(=O)C(F)(F)F)cc1)C(=O)Nc1c(F)cc(F)cc1F` [Compound of the formula (11), N′-Pentyl-N′-[[2′-[[(trifluoromethyl)sulfonyl]-amino]-1,1′-biphenyl-4-yl]methyl]-N-(2,4,6-trifluorophenyl)urea], for which the PIC50 is reported as 5.71.
The same measure for `CCCCCCCN(Cc1ccc(-c2ccccc2S(=O)(=O)NC(=O)Nc2c(C(C)C)cccc2C(C)C)cc1)C(=O)Nc1c(F)cc(F)cc1F` [Compound of the formula (12), N′-[[2′-[[[[(2,6-Diisopropylphenyl)amino]-carbonyl]amino]sulfonyl]-1,1′-biphenyl-4-yl]methyl]-N′-heptyl-N-(2,4,6-trifluorophenyl)urea]: 6.40; for `CCCCCN(CC(=O)Nc1c(C(C)C)cccc1C(C)C)Cc1ccc(-c2ccccc2-c2nnn[nH]2)cc1` [Compound of the formula (13), N-[[[(2,6-Diisopropylphenyl)amino]carbonyl]methyl]-N-pentyl-N-[[2′-(1H-tetrazol-5-yl)-1,1′-biphenyl-4-yl]methyl]amine]: 5.39.
In turn, `CCCCCN(CC(=O)Nc1c(C)cc(C)cc1C)Cc1ccc(-c2ccccc2-c2nnn[nH]2)cc1` [Compound of the formula (14), N-Pentyl-N-[[2′-(1H-tetrazol-5-yl)-1,1′-biphenyl-4-yl]methyl]-N-[[[(2,4,6-trimethylphenyl)amino]-carbonyl]methyl]amine] displayed a PIC50 of 5.23.
Regarding `CCCCCN(CC(=O)Nc1c(F)cc(F)cc1F)Cc1ccc(-c2ccccc2-c2nnn[nH]2)cc1` [Compound of the formula (15), N-Pentyl-N-[[2′-(1H-tetrazol-5-yl)-1,1′-biphenyl-4-yl]methyl]-N-[[[(2,4,6-trifluorophenyl)amino]-carbonyl]methyl]amine], the PIC50 was 5.21.
